Results from patent US7514448B2, “Azaindoles useful as inhibitors of rock and other protein kinases” (Vertex Pharmaceuticals Incorporated, priority 2004, dated 2009).
Where two headings read alike, the source gives them in different places.

Key:
[1] = biological target: ROCK (Homo sapiens, UniProt Q13464); assay: ROCK radioactive assay ("33P"); format: biochemical
Description: If more than one value of Ki has been determined, the average Ki is indicated. If no value is indicated, then the Ki was not determined.

[2] = biological target: PKA (Homo sapiens, UniProt P17612); assay: PKA inhibition assay, coupled enzyme; format: biochemical; settings: average Ki if more than one determined
Protocol: Compounds were screened for their ability to inhibit PKA using a standard coupled enzyme assay (Fox et al., Protein Sci, 1998, 7, 2249). Assays were carried out in a mixture of 100 mM HEPES (pH 7.5), 10 mM MgCl2, 25 mM NaCl, 1 mM DTT and 3% DMSO. Final substrate concentrations in the assay were 50 μM ATP (Sigma Chemicals) and 80 μM peptide (Kemptide, American Peptide, Sunnyvale, Calif.). Assays were carried out at 30° C. and 18 nM PKA. Final concentrations of the components of the coupled enzyme system were 2.5 mM phosphoenolpyruvate, 300 μM NADH, 30 μg/ml pyruvate kinase and 10 μg/ml lactate dehydrogenase.
An assay stock buffer solution was prepared containing all of the reagents listed above, with the exception of ATP, and the test compound of the present invention. […] The plate was preincubated for 10 minutes at 30° C. and the reaction initiated by addition of 5 μl of ATP (final concentration 50 μM). Initial reaction rates were determined with a Molecular Devices SpectraMax Plus plate reader over a 15 minute time course. IC50 and Ki data were calculated from non-linear regression analysis using the Prism software package (GraphPad Prism version 3.0a for Macintosh, GraphPad Software, San Diego Calif., USA).

[3] = radioactive assay, average Ki if more than one determined, read-out: ROCK 33P Ki

Chain of ROCK (Q13464 whole entry): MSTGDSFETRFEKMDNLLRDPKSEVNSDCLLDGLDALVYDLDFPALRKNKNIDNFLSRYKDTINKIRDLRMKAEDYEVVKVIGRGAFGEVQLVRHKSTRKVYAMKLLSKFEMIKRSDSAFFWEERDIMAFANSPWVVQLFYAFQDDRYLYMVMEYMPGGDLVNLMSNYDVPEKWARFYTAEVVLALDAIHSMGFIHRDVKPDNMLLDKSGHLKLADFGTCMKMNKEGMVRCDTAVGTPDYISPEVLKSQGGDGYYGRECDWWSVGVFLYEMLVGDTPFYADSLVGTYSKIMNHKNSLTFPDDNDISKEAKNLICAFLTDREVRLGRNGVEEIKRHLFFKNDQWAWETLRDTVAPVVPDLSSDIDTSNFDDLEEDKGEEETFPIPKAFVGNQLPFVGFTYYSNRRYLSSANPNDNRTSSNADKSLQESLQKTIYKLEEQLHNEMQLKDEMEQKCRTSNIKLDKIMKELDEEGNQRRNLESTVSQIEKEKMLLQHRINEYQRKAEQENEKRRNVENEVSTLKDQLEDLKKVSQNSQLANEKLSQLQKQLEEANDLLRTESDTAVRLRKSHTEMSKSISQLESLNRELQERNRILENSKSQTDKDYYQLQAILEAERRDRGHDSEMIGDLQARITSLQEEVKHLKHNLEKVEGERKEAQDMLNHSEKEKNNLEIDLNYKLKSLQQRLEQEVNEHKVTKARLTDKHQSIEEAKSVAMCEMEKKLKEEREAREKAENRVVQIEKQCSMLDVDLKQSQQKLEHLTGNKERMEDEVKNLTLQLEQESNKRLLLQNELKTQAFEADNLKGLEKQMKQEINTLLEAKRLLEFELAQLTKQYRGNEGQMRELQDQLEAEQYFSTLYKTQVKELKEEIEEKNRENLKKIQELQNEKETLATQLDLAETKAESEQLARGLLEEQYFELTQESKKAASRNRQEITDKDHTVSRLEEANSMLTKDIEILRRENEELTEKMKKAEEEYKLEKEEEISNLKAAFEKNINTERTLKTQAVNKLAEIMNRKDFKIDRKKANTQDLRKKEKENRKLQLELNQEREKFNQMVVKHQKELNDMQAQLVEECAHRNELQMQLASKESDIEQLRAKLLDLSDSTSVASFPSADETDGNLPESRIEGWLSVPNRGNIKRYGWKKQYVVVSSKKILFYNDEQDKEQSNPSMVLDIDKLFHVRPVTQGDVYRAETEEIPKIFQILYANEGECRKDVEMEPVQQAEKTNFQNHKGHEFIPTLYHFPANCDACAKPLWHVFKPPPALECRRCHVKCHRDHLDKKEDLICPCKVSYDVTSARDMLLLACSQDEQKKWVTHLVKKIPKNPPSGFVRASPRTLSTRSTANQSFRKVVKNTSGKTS

SMILES	Ki [1, 3]	Ki [2]	Ki [1]
NCCC(C(=O)Nc1nc(-c2c[nH]c3ncccc23)cs1)c1ccc(F)cc1F (stereo not drawn) [II-191]	< 500 nM	< 500 nM	
NCCC(C(=O)Nc1nc(-c2c[nH]c3ncccc23)cs1)c1ccccc1Cl (stereo not drawn) [II-192]	< 500 nM	< 500 nM	
CN(C)S(=O)(=O)Nc1cccc(CC(=O)Nc2nc(-c3c[nH]c4ncccc34)cs2)c1 [II-193]	< 500 nM	< 500 nM	
NCC(C(=O)Nc1nc(-c2c[nH]c3ncccc23)cs1)c1ccccc1Cl (stereo not drawn) [II-194]	< 500 nM	< 500 nM	
NCC(C(=O)Nc1nc(-c2c[nH]c3ncccc23)cs1)c1cccc(Cl)c1Cl (stereo not drawn) [II-195]	< 500 nM	< 500 nM	
NCC(C(=O)Nc1nc(-c2c[nH]c3ncccc23)cs1)c1ccc(F)cc1Cl (stereo not drawn) [II-196]	< 500 nM	< 500 nM	
c1cnc2[nH]cc(-c3csc(NCCCN4CCOCC4)n3)c2c1 [II-197]	500 to 5000 nM	500 to 5000 nM	
CN1CCN(CCCNc2nc(-c3c[nH]c4ncccc34)cs2)CC1 [II-198]	500 to 5000 nM	500 to 5000 nM	
c1coc(CNc2nc(-c3c[nH]c4ncccc34)cs2)c1 [II-199]	< 500 nM	500 to 5000 nM	
c1cnc2[nH]cc(-c3csc(NCC4CCCO4)n3)c2c1 (stereo not drawn) [II-200]	500 to 5000 nM	500 to 5000 nM	
CN1CCN(CCCN(C(=O)Cc2ccccc2)c2nc(-c3c[nH]c4ncccc34)cs2)CC1 [II-201]	< 500 nM	< 500 nM	
COc1cccc(CC(=O)N(CCCN2CCN(C)CC2)c2nc(-c3c[nH]c4ncccc34)cs2)c1 [II-202]	< 500 nM	< 500 nM	
CN1CCN(CCCN(C(=O)Cc2cccc(NS(C)(=O)=O)c2)c2nc(-c3c[nH]c4ncccc34)cs2)CC1 [II-203]	< 500 nM	< 500 nM	
CC(=O)N(CCCN1CCN(C)CC1)c1nc(-c2c[nH]c3ncccc23)cs1 [II-204]	< 500 nM	500 to 5000 nM	
O=C(Cc1cccnc1)Nc1nc(-c2c[nH]c3ncccc23)cs1 [II-205]	< 500 nM	< 500 nM	
O=C(Cc1cccnc1)Nc1nc(-c2c[nH]c3ncc(F)cc23)cs1 [II-206]	< 500 nM	< 500 nM	
O=C(Nc1nc(-c2c[nH]c3ncccc23)cs1)[C@@H](O)c1ccccc1 [II-207]	< 500 nM	< 500 nM	
COc1cccc(C(O)C(=O)Nc2nc(-c3c[nH]c4ncccc34)cs2)c1 (stereo not drawn) [II-208]	< 500 nM	< 500 nM	
O=C(Nc1nc(-c2c[nH]c3ncccc23)cs1)C(O)c1ccc(F)cc1F (stereo not drawn) [II-209]	< 500 nM	< 500 nM	
O=C(Nc1nc(-c2c[nH]c3ncccc23)cs1)[C@H](O)c1ccccc1 [II-210]	< 500 nM	< 500 nM	
Nc1cccc(C(O)C(=O)Nc2nc(-c3c[nH]c4ncccc34)cs2)c1 (stereo not drawn) [II-212]	< 500 nM	< 500 nM	
NC(C(=O)Nc1nc(-c2c[nH]c3ncccc23)cs1)c1ccc(F)cc1 (stereo not drawn) [II-213]	< 500 nM	< 500 nM	
O=C(Cc1ccccn1)Nc1nc(-c2c[nH]c3ncccc23)cs1 [II-215]	< 500 nM	< 500 nM	
CS(=O)(=O)Nc1cccc(CC(=O)Nc2nc(-c3c[nH]c4c3ccc[n+]4[O-])cs2)c1 [II-216]		500 to 5000 nM	< 500 nM
O=C(Nc1nc(-c2c[nH]c3ncccc23)cs1)N1CCOCC1 [II-236]	500 to 5000 nM	500 to 5000 nM	
O=C(Nc1nc(-c2c[nH]c3ncccc23)cs1)N1CCCCC1 [II-238]	500 to 5000 nM	500 to 5000 nM	
O=C(Nc1nc(-c2c[nH]c3ncccc23)cs1)NC1CCC(C(=O)O)CC1 (stereo not drawn) [II-239]	< 500 nM	500 to 5000 nM	
O=C(Nc1nc(-c2c[nH]c3ncccc23)cs1)N1CCNCC1 [II-243]	500 to 5000 nM	500 to 5000 nM	

Second part, the compound after the results:

Ki [1, 3]	Ki [2]	Ki [1]	SMILES
< 500 nM	< 500 nM		CS(=O)(=O)Nc1cccc(C(O)C(=O)Nc2nc(-c3c[nH]c4ncccc34)cs2)c1 (stereo not drawn) [II-211]
< 500 nM	< 500 nM		N[C@@H](C(=O)Nc1nc(-c2c[nH]c3ncccc23)cs1)c1ccccc1 [II-214]
< 500 nM	< 500 nM		CS(=O)(=O)NCC(=O)Nc1nc(-c2c[nH]c3ncccc23)cs1 [II-217]
< 500 nM	< 500 nM		CCS(=O)(=O)NCC(=O)Nc1nc(-c2c[nH]c3ncccc23)cs1 [II-218]
< 500 nM	< 500 nM		CS(=O)(=O)Nc1cccc(C(N)C(=O)Nc2nc(-c3c[nH]c4ncccc34)cs2)c1 (stereo not drawn) [II-219]
< 500 nM	< 500 nM		CC(C)S(=O)(=O)NCC(=O)Nc1nc(-c2c[nH]c3ncccc23)cs1 [II-220]
< 500 nM	< 500 nM		CCS(=O)(=O)C(C)C(=O)Nc1nc(-c2c[nH]c3ncccc23)cs1 (stereo not drawn) [II-221]
< 500 nM	< 500 nM		C[C@H](NS(C)(=O)=O)C(=O)Nc1nc(-c2c[nH]c3ncccc23)cs1 [II-222]
< 500 nM	< 500 nM		CC(C)[C@H](NS(C)(=O)=O)C(=O)Nc1nc(-c2c[nH]c3ncccc23)cs1 [II-223]
< 500 nM	500 to 5000 nM		CCCC(C(=O)Nc1nc(-c2c[nH]c3ncccc23)cs1)S(C)(=O)=O (stereo not drawn) [II-224]
< 500 nM	500 to 5000 nM		CCCC(C(=O)Nc1nc(-c2c[nH]c3ncccc23)cs1)S(=O)(=O)CC (stereo not drawn) [II-225]
< 500 nM	< 500 nM		CC(C(=O)Nc1nc(-c2c[nH]c3ncccc23)cs1)S(C)(=O)=O (stereo not drawn) [II-226]
< 500 nM	< 500 nM		CC(C)[C@@H](NS(C)(=O)=O)C(=O)Nc1nc(-c2c[nH]c3ncccc23)cs1 [II-227]
< 500 nM	< 500 nM		C[C@@H](NS(C)(=O)=O)C(=O)Nc1nc(-c2c[nH]c3ncccc23)cs1 [II-228]
< 500 nM	< 500 nM		CS(=O)(=O)N1CCC[C@H]1C(=O)Nc1nc(-c2c[nH]c3ncccc23)cs1 [II-229]
< 500 nM	< 500 nM		CS(=O)(=O)N1CCC[C@@H]1C(=O)Nc1nc(-c2c[nH]c3ncccc23)cs1 [II-230]
< 500 nM	< 500 nM		CN(CC(=O)Nc1nc(-c2c[nH]c3ncccc23)cs1)S(C)(=O)=O [II-231]
< 500 nM	< 500 nM		CS(=O)(=O)N[C@H](COCc1ccccc1)C(=O)Nc1nc(-c2c[nH]c3ncccc23)cs1 [II-232]
< 500 nM	< 500 nM		CS(=O)(=O)N[C@@H](COCc1ccccc1)C(=O)Nc1nc(-c2c[nH]c3ncccc23)cs1 [II-233]
500 to 5000 nM	500 to 5000 nM		CCNC(=O)Nc1nc(-c2c[nH]c3ncccc23)cs1 [II-234]
500 to 5000 nM	500 to 5000 nM		O=C(NCCO)Nc1nc(-c2c[nH]c3ncccc23)cs1 [II-235]
500 to 5000 nM	500 to 5000 nM		CN1CCN(C(=O)Nc2nc(-c3c[nH]c4ncccc34)cs2)CC1 [II-237]
500 to 5000 nM	500 to 5000 nM		CN(C)C(=O)Nc1nc(-c2c[nH]c3ncccc23)cs1 [II-240]
500 to 5000 nM	500 to 5000 nM		O=C(Nc1nc(-c2c[nH]c3ncccc23)cs1)N1CCCC1 [II-241]
500 to 5000 nM	500 to 5000 nM		CC(CN(C)C)NC(=O)Nc1nc(-c2c[nH]c3ncccc23)cs1 (stereo not drawn) [II-242]
< 500 nM	500 to 5000 nM		CC(C)NC(=O)Nc1nc(-c2c[nH]c3ncccc23)cs1 [II-244]
